Consider 120 compounds from a melting point compilation (Tetko et al.).

With `CC(=O)c1ccc(N2CCCC2)cc1O`, the melting point (usually the temperature, or range, at which the solid turns liquid) was in the range of 120 to 122 °C. As for `CCOC(=O)c1sc(-c2ccc(Br)cc2)cc1N`, the figure is 105 to 106 °C. The value for `O=C(O)c1cc(-c2ccccc2F)nc2onc(C3CC3)c12` was 182 to 184 °C; that for `O=C(O)CNC(=O)c1cccc(Cl)c1` was 98 to 100 °C. As for `O=C1CN(C(c2ccccc2)c2ccccc2)C1`, the figure is 78 to 80 °C.

For the compound `O=C(CN1CCNCC1)NC1CC1`, the melting point lay in the range of 22 to 24 °C. The value for `N#Cc1cccc(C2(N)CC2)c1` was 67 to 69 °C; that for `Oc1ccc(Oc2nccs2)cc1` was 126 to 128 °C; that for `Brc1ccc(SC2CCOCC2)nc1` was 60 to 62 °C. As for `CN(Cc1cc(C#N)ccc1F)C(=O)CCl`, the figure is 103 to 105 °C; as for `ClCc1ncn(-c2ccccc2)n1`, 83 to 85 °C; as for `Cc1cccc(C2(C(=O)O)CCC2)c1`, 95 to 97 °C. The value for `Cn1cc(C(=O)CBr)cn1` was 116 to 118 °C; that for `O=C(O)C1CCN(c2ccc(Cl)nn2)CC1` was 186 to 188 °C; that for `Cn1c(=O)c2c(=O)cc(N)[nH]c2n(C)c1=O` was 316 to 318 °C.

Compound `CN1CCN(C(=O)c2cc(N)ccn2)CC1` showed a melting point of 133 to 135 °C.

`COc1ccc(C(=O)O)cc1S(=O)(=O)NC1CCCC1` gave a melting point of 216 to 218 °C.

In turn, `O=C(O)Cn1nnc2ccccc2c1=O` displayed a melting point of 145 to 150 °C. As for `O=C(c1ccsc1)N1CCNCC1`, the figure is 235 to 237 °C; as for `O=C(O)c1cccc(-c2ncn[nH]2)c1`, 239 to 241 °C. As for `Cc1cccc(-n2nc(C(=O)O)cc2-c2ccc(-c3ccccc3)cc2)c1`, the figure is 215 to 217 °C; as for `O=C(CCl)c1ccc(F)c(Cl)c1`, 37 to 39 °C; as for `ClCc1noc(C2(c3ccccc3)CCOCC2)n1`, 74 to 76 °C. As for `CC(C)(Cc1ccccc1)C(=O)O`, the figure is 49 to 51 °C; as for `CC(C)Oc1ccc(S(=O)(=O)Cl)cc1Cl`, 95 to 97 °C; as for `CC(C)OC(=O)c1cccc(-c2nn[nH]n2)c1`, 155 to 159 °C.

`CC(Oc1cccc(C(C)(C)C)c1)C(=O)O` (stereo not given) came in with a melting point of 67 to 69 °C. As for `Cc1cccc(COc2ccc(S(N)(=O)=O)cc2)c1`, the figure is 159 to 161 °C. `COc1ccc(F)cc1C(=O)O` displayed a melting point of 87 to 91 °C. As for `CCCS(=O)(=O)N1CCCC(C(=O)O)C1` (stereo not given), the figure is 122 to 124 °C; as for `Nc1nnc(Cc2ccsc2)s1`, 177 to 179 °C; as for `O=C(NCC(F)(F)F)c1ccc(S(=O)(=O)Cl)cc1`, 139 to 141 °C.

Regarding `O=C(O)CCc1ccccn1`, the melting point lay within 134 to 136 °C. As for `NS(=O)(=O)c1cc([N+](=O)[O-])cs1`, the figure is 165 to 167 °C; as for `Cc1cccc2cc(C(=O)O)oc12`, 216 to 218 °C. The value for `Nc1nc2c3c(ccc2s1)CCCC3` was 122 to 124 °C; that for `N#CCN1CCCC2CCCCC21` (stereo not given) was 42 to 44 °C. The value for `Fc1ccc(CCNC2=NCCS2)cc1` was 106 to 108 °C. Compound `COc1ccc(Cl)cc1NS(=O)(=O)c1cccc(C(=O)O)c1` returned a melting point of 155 to 157 °C. The value for `O=C(O)c1ccc2c(c1)C(=O)NC2=O` was 267 to 269 °C; that for `CCC(=O)CNC(=O)CCl` was 81 to 83 °C. As for `O=C(O)c1cc(Cl)ccc1NS(=O)(=O)c1ccccc1`, the figure is 184 to 186 °C. The value for `CNc1ncc([N+](=O)[O-])cc1C#N` was 181 to 183 °C.

With `Cc1nc(-c2ccc(F)cc2)cs1`, the melting point was in the range of 74 to 76 °C.

Turning to `NS(=O)(=O)NCC1CCCNC1` (stereo not given), the melting point fell in the range of 132 to 134 °C. As for `Oc1cccc(-c2nnco2)c1`, the figure is 211 to 213 °C; as for `CS(=O)(=O)Nc1cccc(C#N)c1`, 154 to 156 °C. The compound `CC(C(=O)O)N(C)C(=O)OCC1c2ccccc2-c2ccccc21` (stereo not given) returned a melting point of 119 to 121 °C.

`CC(C)(C)OC(=O)NC(COS(C)(=O)=O)COS(C)(=O)=O` returned a melting point of 96 to 98 °C. The compound `N#Cc1ccnc(-n2ccnc2)c1` registered a melting point of 148 to 150 °C.

For the compound `Cc1sc2nc(-c3cccnc3)nc(Cl)c2c1-c1ccccc1`, the melting point fell in the range of 144 to 146 °C. For `Cc1c(C(N)=O)cccc1[N+](=O)[O-]`, the melting point was 163 to 165 °C. As for `Cc1ccc(NC(=O)CCl)cc1S(=O)(=O)N(C)C`, the figure is 74 to 76 °C; as for `O=C(O)c1ccc2c(=O)n(-c3ccc(F)cc3)c(=O)[nH]c2c1`, 397 to 399 °C; as for `Cn1c(=O)[nH]c(=O)c2[nH]c(CCC(=O)O)nc21`, 322 to 324 °C.

`COc1ccc(SCCC(=O)O)cc1` displayed a melting point of 81 to 83 °C. As for `Nc1nc(-c2sccc2Br)cs1`, the figure is 151 to 153 °C; as for `O=C(O)c1csc(I)c1`, 136 to 138 °C; as for `O=C1COc2c(Cl)cccc21`, 108 to 110 °C. In turn, `CCS(=O)(=O)N1CCC(C(=O)O)(c2ccccc2)CC1` returned a melting point of 203 to 205 °C.

Turning to `O=S(=O)(c1ccc(Cl)cc1)N1CCNCC1`, the melting point fell in the range of 99 to 103 °C. The value for `CS(=O)(=O)c1ccc(OCC(=O)O)cc1` was 172 to 174 °C; that for `CC(C)(C)OC(=O)c1nnsc1N` was 134 to 136 °C; that for `Cc1cc(Br)cc(C=O)c1OC(F)F` was 46 to 48 °C. The compound `O=C(O)c1cc(-c2ccccc2)nc2cc(Br)ccc12` returned a melting point of 219 to 221 °C.

In turn, `CCOc1ccc(S(=O)(=O)NC(=O)c2ccccc2)cc1` came in with a melting point of 85 to 87 °C. The value for `CC(C)(C)OC(=O)N1CCN2C(=O)NCC2C1` (stereo not given) was 218 to 220 °C; that for `O=C(O)c1ccc(-c2ccncc2)[nH]c1=O` was 315 to 317 °C. The compound `Cc1nc(Cl)ccc1CC(=O)O` returned a melting point of 134 to 136 °C. In turn, `O=C(O)C1CSC(c2ccc(Cl)s2)N1` (stereo not given) showed a melting point of 149 to 151 °C.

Compound `CNC(CO)c1cccc(Br)c1` (stereo not given) showed a melting point of 79 to 81 °C. The value for `O=C1Nc2c(I)cccc2C1=O` was 200 to 202 °C; that for `Cn1cccc1C(=O)NN` was 113 to 115 °C. As for `CN(C)c1ccc(-c2nc3ccccc3s2)cc1`, the figure is 171 to 173 °C; as for `OCc1csc(-c2ccccn2)n1`, 95 to 97 °C. The compound `COC(=O)c1cc(OC)c(OC(F)F)cc1N` returned a melting point of 89 to 91 °C. As for `NC(=NO)c1ccc(OCc2cccnc2)cc1`, the figure is 165 to 167 °C. As for `Nc1ccc(OCc2ccccn2)c(F)c1`, the figure is 67 to 69 °C; as for `Clc1ccc(-c2nnc(CNC3CC3)o2)cc1`, 104 to 106 °C; as for `CN1CCN(c2ccc(N)c(C(F)(F)F)c2)CC1`, 87 to 89 °C. The value for `CCCc1noc2nc(-c3cccnc3)cc(C(=O)O)c12` was 259 to 261 °C; that for `CCOc1cn(-c2ccccc2)nc1C(=O)O` was 142 to 144 °C; that for `O=C(O)C1CC1c1ccc(Br)cc1` (stereo not given) was 122 to 124 °C. Compound `Nc1noc(COc2ccc(F)cc2)n1` came in with a melting point of 154 to 156 °C. The value for `CCN(C1CC1)S(=O)(=O)c1c(C)n[nH]c1C` was 97 to 99 °C.

As to `CC1CN(C(=O)OC(C)(C)C)CC(C)N1` (stereo not given), the melting point lay within 64 to 66 °C. As for `CC1CN(C(=O)c2cnn(C)c2N)CC(C)O1` (stereo not given), the figure is 152 to 154 °C; as for `Nc1cnn(CC(=O)NC2CCCC2)c1`, 108 to 110 °C. As for `O=C(O)c1nn(-c2ccc(F)cc2)c2c1CCCC2`, the figure is 209 to 211 °C; as for `O=Cc1cnc(-c2cccs2)s1`, 113 to 115 °C. Turning to `Nc1ccccc1C(=O)N1CCCC1`, the melting point is 85 to 89 °C. The value for `CN(C)c1nc(=N)cc[nH]1` was 149 to 151 °C; that for `O=c1ccn2ncc(Br)c2[nH]1` was 349 to 351 °C. `N#Cc1ccc(-c2nc(CCl)co2)cc1` returned a melting point of 132 to 134 °C.

`CCCn1c(C)cc(C=O)c1C` returned a melting point of 52 to 54 °C. The value for `CCOC(=O)Cn1c(=O)[nH]c2cc(Br)cnc21` was 206 to 208 °C; that for `CC(=O)c1nnn(-c2ccc(F)cc2)c1C` was 77 to 79 °C; that for `Cc1cc(CCCC(=O)O)c(C)s1` was 56 to 58 °C. As for `CC(=O)c1ccc(OCCCC(=O)O)cc1`, the figure is 135 to 139 °C; as for `O=C1COc2ncc(C(=O)O)cc2N1`, 319 to 321 °C. The value for `Cc1cccc(-c2nc3cc(F)ccc3[nH]2)c1O` was 251 to 253 °C. Consider `CCn1c(S)nnc1-c1ccc(C(C)(C)C)cc1`, for which the melting point is 130 to 132 °C. As for `COC(=O)c1ccc2nc(N)oc2c1`, the figure is 228 to 230 °C; as for `Clc1nc(-c2cccc(Oc3ccccc3)c2)no1`, 50 to 52 °C. As for `N#CCc1ncc(C(F)(F)F)cc1Cl`, the figure is 34 to 36 °C. As for `CCOc1ccc(N(C)S(=O)(=O)c2ccc(C)c(C(=O)O)c2)cc1`, the figure is 175 to 177 °C; as for `CCc1ccc(-c2nn(-c3ccccc3)cc2C(=O)O)cc1`, 208 to 210 °C; as for `COc1ccc(Cn2nccc2N)c(OC)c1OC`, 71 to 75 °C.

`O=C1NCCc2c1ccc(Cl)c2Cl` displayed a melting point of 200 to 202 °C.

`COc1cc(NC(C)=O)ccc1C(C)=O` came in with a melting point of 130 to 132 °C.

The compound `N#Cc1ccc(S)c(Cl)c1` registered a melting point of 81 to 83 °C. The value for `COC(=O)NCCC(=O)O` was 75 to 77 °C; that for `C=CCNS(=O)(=O)c1cccc(C(=O)O)c1` was 180 to 182 °C. The value for `CC(C)c1nn(-c2ccccc2)c(Cl)c1C=O` was 53 to 55 °C. As for `NC(=S)Cc1cccc(Cl)c1`, the figure is 105 to 107 °C; as for `CCOC(=O)COc1ccc(Cl)c2cccnc12`, 113 to 115 °C; as for `O=c1[nH]c(-c2ccc(Cl)cc2)co1`, 241 to 243 °C. Consider `Cc1csc(NC(=O)Cc2ccc(N)cc2)n1`, for which the melting point fell in the range of 143 to 145 °C.

The compound `O=C(O)c1nn(-c2ccc(Cl)cc2)cc1O` had a melting point of 248 to 250 °C. The value for `Cc1nc(COc2ccc(C(=O)O)cc2)no1` was 197 to 199 °C.
